From article PMC4879371, “Antitrypanosomal Activities and Mechanisms of Action of Novel Tetracyclic Iridoids from Morinda lucida Benth” (Antimicrobial Agents and Chemotherapy, 2016)
“Also recorded” adds a separate entry of the source.

What was measured:
[1] = tested on: GUTat 3.1 strain of the bloodstream form of T. brucei brucei; assay: alamarBlue in vitro viability test for trypanosome parasites; assay type: cell-based; conditions: Trypanosoma brucei, 48 h of incubation, read-out: IC50, antitrypanosomal activity
Method: The GUTat 3.1 strain of the bloodstream form of T. brucei brucei parasites was used in this study. Parasites were cultured in vitro according to the conditions established previously ([36]). Parasites were used when they reached a confluent concentration of 1 × 10^6 parasites/ml. Estimation of parasitemia was done with the Neubauer counting chamber. Parasites were diluted to a concentration of 3 × 10^5 parasites/ml with HM1-9 medium and were used for the various experiments.
The alamarBlue assay (Life Technologies, USA) was carried out on treated or untreated trypanosome parasites to ascertain their viability. The assay was performed in a 96-well plate following the manufacturer's instructions with modification. Briefly, 1.5 × 10^4 parasites were seeded with varied concentrations of plant material (extracts, fractions, or compounds) ranging from 0.78 μg/ml to […]. Final concentrations of EtOH and dimethyl sulfoxide (DMSO) were kept at <1% and 0.1%, respectively. After incubation of parasites with or without plant extracts or compounds for 24 h at 37°C in 5% CO2, 10% alamarBlue dye was added, and the parasites were incubated another 24 h in darkness. After a total of 48 h, the plate was read for absorbance at 540 nm using the Tecan Sunrise Wako spectrophotometer. The trend curve was drawn to obtain a 50% inhibitory concentration (IC50) of each plant material (extracts, fractions, and compounds).

[2] = MTT cytotoxicity assay, NB1RGB; assay type: cell-based, human; conditions: human, NB1RGB skin fibroblast cells; NB1RGB normal skin fibroblast, 48 h
Method: (§1) The cytotoxicity of the compounds to mammalian cells were determined using four human normal cell lines, namely, NB1RGB (skin fibroblast) and HF-19 (lung fibroblast) obtained from the RIKEN Bio Resource Center Cell Bank (Japan) and Chang Liver and Hs888Lu (lung) obtained from the European Collection of Authenticated Cell Cultures (ECACC). NB1RGB and HF-19 were maintained in minimum essential medium-α (MEM-α). Chang Liver and Hs888Lu were grown in Eagle's minimum essential medium (EMEM) and RPMI 1640, respectively. All of these media were supplemented with 10% fetal bovine serum (FBS) and 1% penicillin-streptomycin and were then incubated at 37°C under 5% CO2 in fully humidified conditions.
(§2) Cytotoxicity was determined using a 3-(4,5-dimethylthiazol-2-yl)-2,5-diphenyltetrazolium bromide (MTT) assay. The cells were treated with molucidin, ML-2-3, or ML-F52 at concentrations of ≤50 μM for 48 h. Cells were plated at a density of 0.5 × 10^4 cells/well into 96-well plates. After 24 h of incubation, cells were treated with various concentrations of each of the purified compounds for 48 h. Then, MTT solution was added to each well, and the cells were incubated for another 4 h. The precipitated MTT-formazan product was dissolved in 0.04 N HCl-isopropanol, and the amount of formazan was measured at a wavelength of 595 nm by a microplate reader (Immuno Mini NJ-2300; Nihon InterMed, Tokyo, Japan). Cytotoxicity was calculated as the percentage of live cells relative to the control culture. The selectivity index (SI) was expressed as the ratio of the IC50 obtained for mammalian cells and the IC50 for trypanosomes.

NB1RGB (skin fibroblast) = assay: MTT cytotoxicity assay, NB1RGB; assay type: cell-based, human; conditions: IC50 NB1RGB / IC50 trypanosomes
Method: as §1, §2

[3] = MTT cytotoxicity assay, HF-19; assay type: cell-based, human; conditions: human, HF-19 lung fibroblast cells; HF-19 normal lung fibroblast, 48 h
Method: as §1, §2

HF-19 (lung fibroblast) = assay: MTT cytotoxicity assay, HF-19; assay type: cell-based, human; conditions: IC50 HF-19 / IC50 trypanosomes
Method: as §1, §2

[4] = tested on: Trypanosoma parasites (T. brucei brucei); assay: FACS Nexin assay for apoptosis in trypanosome parasites; assay type: cell-based; conditions: 24 h; for minimum concentration inducing strong apoptosis: 0 μM to 50 μM tested; for apoptosis induction: molucidin 6.25 μM, ML-2-3 6.25 μM, ML-F52 0.78 μM
Method: Seeding and incubation of parasites with compounds were done under the same conditions as those for the alamarBlue assay as described above without addition of the alarmarBlue reagent. In this case, after 24 h of incubation, Guava reagents for Nexin and cell cycle assays were added, and each assay was performed using the Millipore Guava easyCyte 5HT fluorescence-activated cell sorter (FACS) machine according to the manufacturer's instruction. The Nexin assay and subsequent FACS analysis allowed for detection of markers of apoptosis induction by the plant materials. Similarly, the cell cycle assay and subsequent FACS analysis allowed for detection of markers of cell cycle alteration by the plant materials. […]

[5] = tested on: paraflagellum rod protein subunit 2, PFR-2; assay: PFR-2 expression, immunohistochemistry and Western blotting with anti-PFR-2 antibody; assay type: cell-based, Trypanosoma brucei brucei; conditions: for expression of PFR-2 protein: 24 h, 5 μM molucidin, 15 μM ML-2-3, 0.43 μM ML-F52
Method: To investigate the effect of the compounds on parasite morphology and their flagellum function, immunohistochemistry using anti-paraflagellum rod protein anti-PFR-2 antibody ([37]), was performed with molucidin-, ML-2-3-, and ML-F52-treated trypanosome parasites. […] Parasites were then harvested after incubation with or without appropriate concentrations of compounds and were fixed with 4% paraformaldehyde in 8-well chamber slides at room temperature for 5 min. Washing steps were carried out with 500 μl of phosphate-buffered saline (PBS) twice and 0.1% Triton X-100 in PBS (PBST) at room temperature for 5 min each. Blocking reagent (500 μl; 3% bovine serum albumin [BSA] in PBS) was added and incubated for 30 min at room temperature. Primary and secondary antibody incubation with parasites was done for 1 h each, and 4′,6-diamidino-2-phenylindole (DAPI) (5 μg/ml DAPI in PBS) staining was done for 10 min. After the washing steps presented above, the slides were mounted using PermaFluor mounting reagent and were covered with coverslips. The slides were observed under an Olympus fluorescence microscope (Olympus BX53) to detect any phenotypic changes in T. brucei brucei parasites.
Trypanosome parasites were incubated with or without compound in vitro and were lysed with 0.5% NP-40 ([38]). Protein concentration of the lysate was determined using the Bio-Rad protein assay reagents (Bio-Rad, USA). SDS-PAGE was run using Invitrogen NuPAGE 12% Bis-Tris gel. The proteins were blotted on a polyvinylidene difluoride (PVDF) membrane (Immobilon P; Millipore, USA), added with mouse anti-PFR-2 antibody, 1:500 dilution, and incubated at 4°C overnight. The membrane was then incubated with anti-mouse horseradish peroxidase (HRP) antibodies, 1:2,000 dilution, for an hour at room temperature. Chemiluminescence HRP substrates A and B (Immobilon Western; Millipore, USA) were added to the membrane in a ratio of 1:1. Detection was done using the ATTO cooled charge-coupled device (CCD) camera system EzCapture II (ATTO Corporation, Japan).
To investigate the sequence in which the events (apoptosis induction, PFR-2 suppression, and cell cycle alteration) involved in mechanisms of action occur, we examined the time course for the three events using ML-2-3-treated parasites. Trypanosoma brucei parasites were incubated for 0, 0.5, 1.5, 3, 6, and 24 h with 15 μM ML-2-3 and were then subjected to both Nexin assay and Western blot analyses using the PFR-2 antibody. We further investigated the time course of cell cycle alteration using ML-2-3-treated parasites at similar concentrations and incubation periods.

Row | Compound | IC50 [1] [µM] | IC50 at 48 h [2] [µM] | SI (selectivity index) (NB1RGB (skin fibroblast)) | IC50 at 48 h [3] [µM] | SI (selectivity index) (HF-19 (lung fibroblast)) | minimum concentration inducing strong apoptosis [4] [µM] | early-stage apoptotic cells (lower right quadrant) ([4]; 6.25 μM) [%] | late-stage apoptotic cells (upper right quadrant) ([4]; 6.25 μM) [%] | apoptosis induction [4] | time of exposure to significant suppression of PFR-2 protein expression ([5]; 15 μM ML-2-3, time course Western blot) [h] | expression of PFR-2 protein [5] | early-stage apoptotic cells (lower right quadrant) ([4]; 0.78 μM) [%] | late-stage apoptotic cells (upper right quadrant) ([4]; 0.78 μM) [%]
1 | COc1cc(/C=C2/C(=O)O[C@]34C=C[C@@H]5C(C(=O)O)=CO[C@H](O[C@@H]23)[C@@H]54)ccc1O [ML-2-3] | 3.75 | > 50 | >13.33 | > 50 | >13.33 | 6.25 | 7.8 | 4.4 | significant apoptosis induction | ≤ 0.5 | suppression of PFR-2 expression; also recorded: suppressed the expression of PFR-2 proteins |  | 
2 | COC(=O)C1=CO[C@@H]2O[C@H]3/C(=C\c4ccc(O)c(OC)c4)C(=O)O[C@]34C=C[C@H]1[C@H]24 [molucidin] | 1.27 | 7.11 | 5.60 | 14.2 | 11.21 |  | 1.1 | 0 | no significant induction of apoptosis; also recorded: no significant apoptotic induction |  | significant expression of PFR-2 |  | 
3 | CCOC(=O)C1=CO[C@@H]2O[C@H]3/C(=C\c4ccc(O)c(OC)c4)C(=O)O[C@]34C=C[C@H]1[C@H]24 [ML-F52] | 0.43 | 4.74 | 11.02 | 10.9 | 25.44 | 0.78 |  |  | strongest induction of apoptosis |  | suppression of PFR-2 expression; also recorded: suppressed the expression of PFR-2 proteins | 14.2 | 2.3
